Laboratory results published in PMC11729428, “New Potent Inhibitor of Transforming Growth Factor-Beta (TGFβ) Signaling that is Efficacious against Microsatellite Stable Colorectal Cancer Metastasis in Combination with Immune Checkpoint Therapy in Mice” (ACS Pharmacology & Translational Science, 2024).

Columns and labels:
[1] = Plasma protein binding by rapid equilibrium dialysis, rat plasma
Procedure: (§1) 5. Methods for In vitro characterizations of HYL001 […]
(§2) Rapid equilibrium dialysis was performed in triplicates with a rapid equilibrium dialysis (RED) by Sai Life Sciences Lt. (Telangana, India). The RED device contains a dialysis membrane with a molecular weight cut -off […]
(§3) of 8,000 Da, separating two chambers for plasma and buffer, respectively. […]
(§4) were added to the plasma chamber, versus phosphate buffer saline (pH 7.4) to the buffer chamber. Dialysis was performed for 4 h with 100 RPM shaking at 37 °C. […]
(§5) compounds in plasma were either frozen immediately (T0 sample), or incubated at 37 °C for 4 h without dialysis (non-dialysed), respectively.
(§6) Following dialysis, an aliquot was removed from either chamber and diluted with equal volume of opposite matrix to nullify the matrix effect. Similarly, buffer was added to recovery and stability samples. Next, acetonitrile (containing internal standard, glipizide) was added to the mixtures for protein precipitation and vortexed for 5 minutes. The samples were centrifuged at 4000 RPM at 4 °C for 10 min and the supernatant was submitted for liquid chromatography mass spectrometry (LC-MS/MS) analysis. Samples were monitored for parent compound using multiple reaction monitoring (MRM) mode.
(§7) The peak area ratios (PAR, analyte versus internal standard) in plasma vs bufffer were used to determine the fraction of compound bound to plasma proteins. The following equation was used to determine the extent of plasma protein binding: percent free drug = 100% x (PARbuffer / PARplasma); percent bound drug = 100 - % free drug. Recovery was calculated as 100% x (PARplasma + PARbuffer)dialysed / (PARplasma)non-dialysed; stability as 100% x (PAR)non-dialysed / (PARplasma)frozen at T0. […]

[2] = system: panel of key proteins (cell receptors, neurotransmitter transporters, and ion channels); assay: In vitro safety pharmacology, binding (SafetyScreen 44); conditions: 10 μM HYL001
Procedure: To identify potential adverse off-target drug interactions and derisk the development of HYL001 as a drug,[22] we performed binding and enzymatic inhibition assays with a panel of key proteins (mainly cell receptors, neurotransmitter transporters, and ion channels). […]
analysis by LC-MS/MS, using MRM mode. […]
related to phase I and phase II metabolism, respectively.
The PARs were used for calculation of metabolic stability. The 0 min area ratio was considered as 100%. The […]
incubation volume / number of cells (in millions) x K e. To calculate into full body context, the values of 120 […]
In vitro safety pharmacology […]
compared with historical values determined at Eurofins. Binding was defined as the % inhibition of the signal […]
enzyme activity. […] Results showing
The tail current amplitude, induced by a one […]
and expressed as % inhibition.
The Ames test was performed at Xenomatrix (Allschwil, Switzerland). Bacteria from the S. typhimurium

[3] = system: Salmonella typhimurium strains TA98, TA100, TA1535 and TA1537; assay: Ames test; type: cell-based
Procedure: The mutagenic potential of HYL001 was evaluated by the Ames test, assessing its ability to induce reverse mutations in the histidine operon of Salmonella typhimurium strains that allow for detection of both substitution mutations (TA100 and TA1535) and frameshift mutations (TA98 and TA1537). The mutagenic potential of HYL001 was tested at 6 concentrations (semilog 1–320 μg/mL) alone or in the presence of liver S9 fractions. […]
The Ames test was performed at Xenomatrix (Allschwil, Switzerland). Bacteria from the S. typhimurium […]
negative control, for 90 minutes in medium containing sufficient histidine to support approximately two cell divisions. After exposure, the cultures were diluted in pH indicator medium lacking histidine or tryptophan and aliquoted into 48 wells of a 384-well plate. Within two days, cells that have undergone reversion to amino acid prototrophy grow into colonies. The number of wells containing revertant colonies were counted by pH indicator colour change for each dose and compared to a solvent (negative) control. A dose dependent increase in the number of revertant colonies upon exposure to HYL001 would have indicated mutagenicity.

ALK5 (TGFBR1) = target: T1, ALK5 (TGFBR1) (Homo sapiens, UniProt P36897, T204D); assay: Radiometric in vitro kinase activity assay (Kinase Profiler); type: biochemical
T1 sequence (P36897 200-503 T204D): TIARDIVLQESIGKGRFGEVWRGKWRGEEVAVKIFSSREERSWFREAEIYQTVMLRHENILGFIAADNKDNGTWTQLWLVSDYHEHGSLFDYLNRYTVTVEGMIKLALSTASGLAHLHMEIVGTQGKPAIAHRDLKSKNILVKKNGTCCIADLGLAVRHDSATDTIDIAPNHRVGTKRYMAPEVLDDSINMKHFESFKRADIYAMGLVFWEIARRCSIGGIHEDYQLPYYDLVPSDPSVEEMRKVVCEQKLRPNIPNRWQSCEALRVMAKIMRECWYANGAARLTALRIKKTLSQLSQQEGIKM
Procedure: 5. Methods for In vitro characterizations of HYL001
Kinase affinity and selectivity […]
The activity, measured as IC50, of inhibitors was determined by radiometric γ-33P-ATP-mediated in vitro phosphorylation assays, using the Kinase Profiler service from Eurofins Pharma Discovery Services (Wolverhampton, UK) and Eurofins Cerep (Celle L’Evescault, France). Compounds, prepared in 100% DMSO, were tested using a 9-point curve with half -log serial dilutions (1–10,000 nM). […]

[4] = Plasma protein binding by rapid equilibrium dialysis, human plasma; conditions: for fraction unbound at 4 h, 5 µM: plasma
Procedure: as §1, §2, §3, §4, §5, §6, §7

[5] = system: mouse tumor organoids (MTOs), CRC liver metastases; parameters: method as in PMID 29443964; conditions: murine CRC liver metastasis model ref 5; cited from earlier work
TGFBR2 = target: T2, TGFBR2 (Homo sapiens, UniProt P37173); parameters: method as in earlier work; conditions: reported data ref 15; read-out: Binding constant (Kd) TGFBR2; cited from earlier work
T2 construct: purchased Eurofins/DiscoveryX (KINOMEscan service)
T2 sequence (P37173 23-567): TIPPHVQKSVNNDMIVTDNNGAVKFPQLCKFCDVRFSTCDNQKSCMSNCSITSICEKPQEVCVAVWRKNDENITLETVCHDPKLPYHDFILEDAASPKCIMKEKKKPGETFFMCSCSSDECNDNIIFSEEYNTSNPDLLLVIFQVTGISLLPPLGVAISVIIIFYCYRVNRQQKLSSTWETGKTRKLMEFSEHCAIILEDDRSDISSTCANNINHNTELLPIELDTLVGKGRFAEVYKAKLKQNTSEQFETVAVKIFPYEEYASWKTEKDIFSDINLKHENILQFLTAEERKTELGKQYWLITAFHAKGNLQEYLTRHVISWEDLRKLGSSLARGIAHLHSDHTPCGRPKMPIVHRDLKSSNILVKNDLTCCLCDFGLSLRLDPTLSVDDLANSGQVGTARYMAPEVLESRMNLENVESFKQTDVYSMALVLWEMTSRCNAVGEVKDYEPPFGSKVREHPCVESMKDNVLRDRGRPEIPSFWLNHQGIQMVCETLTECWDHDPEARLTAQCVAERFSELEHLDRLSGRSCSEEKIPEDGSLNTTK

Cc1cccc(-c2nn3c(c2-c2ccnc4ccc(O)cc24)CCC3)n1 [HYL001, 4-(2-(6-Methylpyridin-2-yl)-5,6-dihydro-4H-pyrrolo[1,2-b]pyrazol-3-yl)quinolin-6-ol]
% Free fraction ([1]; rat plasma): 4.9%
% Compound remaining at 4 hrs ([1]; rat plasma, 37 °C): 106.1%
recovery at 4 h, 5 µM ([1]; rat, plasma (rapid equilibrium dialysis device), pH 7.4): 100%
fraction unbound at 4 h, 5 µM ([1]; rat, plasma, pH 7.4): 0.049
Inhibition of binding to any safety panel target [2]: ≤ 50%
Positive mutagenic responses (Ames test) ([3]; 6 concentrations 1–320 μg/mL, alone or with liver S9, all strains): No positive mutagenic responses
Dose dependency ([3]; TA98, w/o S9): No
Mutagenic data points ([3]; TA98, w/o S9): No
Dose dependency ([3]; TA98, with S9): No
Mutagenic data points ([3]; TA98, with S9): No
Dose dependency ([3]; TA100, w/o S9): No
Mutagenic data points ([3]; TA100, w/o S9): No
Dose dependency ([3]; TA100, with S9): No
Mutagenic data points ([3]; TA100, with S9): No
Dose dependency ([3]; TA1535, w/o S9): No
Mutagenic data points ([3]; TA1535, w/o S9): No
Dose dependency ([3]; TA1535, with S9): No
Mutagenic data points ([3]; TA1535, with S9): No
Dose dependency ([3]; TA1537, w/o S9): No
Mutagenic data points ([3]; TA1537, w/o S9): No
Dose dependency ([3]; TA1537, with S9): No
Mutagenic data points ([3]; TA1537, with S9): No
Fold higher ALK5 IC50 than that of vactosertib (ALK5 (TGFBR1)): around 3.5 fold
Fold increase (in vitro potency) compared to galunisertib (ALK5 (TGFBR1); ALK5 IC50): ~2.5 fold
IC50 (ALK5 (TGFBR1); recombinant TGFBR1 fragment 200–end (T204D), read-out: kinase inhibition IC50, ALK5 (TGFBR1)): 177 nM
% Bound Mean ± SD ([4]; human plasma, 5 µM, n=3): ~91%
% Compound remaining at 4 hrs ([4]; human plasma, 37 °C): 101.1%
recovery at 4 h, 5 µM ([4]; human, plasma (rapid equilibrium dialysis device), pH 7.4): 101%
fraction unbound at 4 h, 5 µM ([4]; human, pH 7.4, % Bound Mean ± SD, human plasma, 5 µM, n=3): 0.084
fraction unbound at 4 h, 5 µM ([4]; human, pH 7.4, % Free fraction, human plasma): 0.084

Cc1cccc(-c2nn3c(c2-c2ccnc4ccc(C(N)=O)cc24)CCC3)n1 [galunisertib]
Efficacious murine dose [5]: 720–800 mg/kg twice daily (BID)
Kd (TGFBR2): 208 nM
